Laboratory results taken from paper PMC5915154, “Aloe-emodin as drug candidate for cancer therapy” (Oncotarget, 2018).
pIC50: −log10 of the molar value.

Experiments:
[1] = tested on: Human peripheral mononuclear cells (PMNC); assay: Toxicity in normal cells, resazurin assay; format: cell-based; conditions: PMNC of a healthy donor, all concentrations tested 0.001-100 μM
Protocol: We also investigated Aloe-emodin’s toxicity towards normal cells. Human peripheral mononuclear cells (PMNC) were isolated from fresh blood samples of a healthy donor and tested against various concentrations of Aloe-emodin ranging from 0.001-100 μM.
Normal human peripheral mononuclear cells (PMNC) were isolated from fresh blood samples of a healthy donor using Histopaque® (Sigma-Aldrich). In brief, 6 mL blood were layered with 6 mL Histopaque® and centrifuged (400 × g) for 30 min at 4°C. The opaque interface containing lymphocytes and other mononuclear cells was transferred into a new tube and washed several times. Isolated PMNCs were kept in Panserin 413 medium (PAN-Biotech, Aidenbach, Germany) supplemented with 2 % phytohemagglutinin M (PHA-M, Life Technologies, Darmstadt, Germany).
Resazurin reduction assay was conducted to test the cytotoxicity of the compounds. This assay is based on the reduction of resazurin to resorufin by viable cells. […] After 72 h incubation and addition of resazurin (Sigma-Aldrich) for 4 h, staining was measured by an Infinite M2000 ProTM plate reader (Tecan, Germany) using an excitation wavelength of 544 nm and an emission wavelength of 590 nm. […]

[2] = tested on: HEK293 human embryonic kidney cells; assay: Resazurin reduction assay, HEK293; format: cell-based; conditions: 72 h
Description: (§1) The cell lines used in the present work, their origins and maintenance conditions were previously reported. In brief, drug-sensitive CCRF-CEM and multidrug resistant P-glycoprotein-over-expressing CEM/ADR5000 leukemia cells, MDA-MB-231-pcDNA3 breast cancer cells and their transfectant subline MDA-MB-231-BCRP clone 23, HCT116 (p53^+/+) colon cancer cells and its knockout clone HCT116 (p53^-/-), U87.MG glioblastoma multiform cells and their transfectant subline U87.MGΔEGFR as well as HEK293 human embryonic kidney cells transfected with or without a cDNA for ABCB5 were used. The human peripheral mononuclear cells (PMNC) were isolated from fresh blood samples of a healthy donor by using Histopaque® (Sigma-Aldrich, Taufkirchen, Germany).
(§2) Resazurin reduction assay was conducted to test the cytotoxicity of the compounds. This assay is based on the reduction of resazurin to resorufin by viable cells. […] Briefly, aliquots of 0.5×10^4 adherent cells which were allowed to attach overnight and 1×10^4 suspension cells per well were seeded in 96-well-plates with or without the addition of varying concentrations of the test substance to get a total volume of 200 μL/well. After 72 h incubation and addition of resazurin (Sigma-Aldrich) for 4 h, staining was measured by an Infinite M2000 ProTM plate reader (Tecan, Germany) using an excitation wavelength of 544 nm and an emission wavelength of 590 nm. […]

CCRF-CEM cells [3] = assay: Protease viability marker assay (GF-AFC); format: cell-based; conditions: Homo sapiens, 72 h
Protocol: The protease viability marker assay was performed to exclude the possibility that the cytotoxicity of Aloe-emodin measured by the resazurin assay was artificially influenced by any non-intended interaction with Aloe-emodin-induced ROS generation. The assay measures the protease activity within living cells. The protease activity is restricted to intact viable cells and is measured using a flourogenic, cell permeant, peptide substrate (glyxyl-phenylalanyl-aminoflourocoumarin; GF-AFC). The substrate enters intact cells, where it is cleaved by proteases to generate a fluorescent signal proportional to the number of living cells. Briefly, CCRF-CEM cells (2×10^4cells/well) were seeded in 96 well plate. Aloe-emodin was added in a dose dependent manner (0.001 – 100 μM). After 72 h, 100 μL of GF-AFC substrate (Promega, Madison, USA) were added to each well, cells were incubated for 30 min at 37°C. Using Infinite M2000Pro™ plate reader (Tecan, Crailsheim, Germany), the fluorescent intensity was measured at an excitation wavelength 400 nm, and emitted light was collected at 505 nm.

CCRF-CEM cells [4] = assay: Mitochondrial membrane potential (JC-1, flow cytometry); format: cell-based, human; conditions: CCRF-CEM, 2- and 4-fold IC50, 24 and 48 h
Description: The JC-1 Mitochondrial Membrane Potential Assay Kit (Cayman Chemical, Ann Arbor, MI, USA) was applied for the detection of MMP by flow cytometry according to the manufacturer’s instructions. The cationic dye, 5, 5’, 6, 6’- tetrachloro- 1, 1’, 3, 3’- tetraethylbenzimidazolylcarbocyanine iodide (JC-1) enters the mitochondria and changes its fluorescent properties based on the aggregation of the probe. In healthy cells having high MMP, JC-1 forms complexes known as J-aggregates with intense red fluorescence. On the other hand, in cells with low MMP, JC-1 remains in its monomeric form showing green fluorescence. […] A LSR-Fortessa FACS analyzer (Becton–Dickinson) was used to detect the J-aggregate form of JC-1 with an excitation wavelength of 535 ± 20 nm and an emission wavelength of 590 ± 20 nm as well as the monomeric form of JC-1 at excitation and emission wavelengths of 485 and 535 nm, respectively. The results were analyzed by the FlowJo software (Celeza, Olten, Switzerland). 2×10^4 cells were counted for each experiment which were repeated in triplicate.

drug-resistant sublines = assay: Resazurin reduction assay, range over drug-resistant and/or transfected sublines; format: cell-based; conditions: Homo sapiens
Description: as §1, §2

U87.MGΔEGFR cells = assay: Resazurin reduction assay, U87.MGΔEGFR; format: cell-based; conditions: Homo sapiens, 72 h
Description: as §1, §2

CCRF-CEM cells [5] = assay: Detection of reactive oxygen species (H2DCFH-DA, flow cytometry); format: cell-based, human
Protocol: 2′,7′-Dichlorofluorescin diacetate (H2DCFH-DA, Sigma-Aldrich) is a cell-permeable non-fluorescent probe used to detect cellular ROS levels. In the presence of ROS, the compound is de-esterified intracellularly and converts into the highly fluorescent 2′,7′-dichlorofluorescein upon oxidation. Thus, it can be measured by flow cytometry. CCRF-CEM cells were re-suspended in PBS and incubated for 30 min withH2DCFH-DA at a concentration of 2 μM. After washing with PBS, the cells were treated with DMSO as negative control, H2O2 and doxorubicin as positive controls or varying concentrations of Aloe-emodin (0.5-, 1-, 2- and 4-fold IC50) for 1 h. The results were assessed by a BD Accuri™ C6 flow cytometer (Becton Dickinson) using FL-1 the channel (488 nm excitation). For each sample, 10^4 cells were counted. The protocol has been recently reported by us.

pIC50 (CCRF-CEM cells [3]): 4.86
pIC50 (U87.MGΔEGFR cells): 4.47
SMILES: O=C1c2cccc(O)c2C(=O)c2c(O)cc(CO)cc21 [Aloe-emodin]
cytotoxic activity towards normal cells [1]: did not show cytotoxic activity
pIC50 [2]: 4.77
MMP depolarization (JC-1 fluorescence) (CCRF-CEM cells [4]): shift from red to green fluorescence
pIC50 (drug-resistant sublines): 4.47 to 4.95
ROS production, fold changes (CCRF-CEM cells [5]; 0.5-, 1-, 2- or 4-fold IC50, 1 h, dose-dependent): ≥ 1.5 fold
ROS generation compared with positive controls (CCRF-CEM cells [5]; 1 h, vs doxorubicin (1 μM) or H2O2 (250 μM)): even higher ROS generation than doxorubicin
